Results reported in the NIST ThermoML archive (doi:10.1021/je800158z).
Numbers after ± are expanded uncertainties.

Key:
[1] = xn = mol fraction of the nth substance listed; settings: 81.5 kPa, Liquid
[2] = 81.5 kPa, Liquid

CC(C)O [propan-2-ol] + O
mass density [kg/m3], [1]
Settings | 293.15 K | 303.15 K | 313.15 K | 323.15 K
x1 = 0.0399 | 979.61 ± 0.16 | 976 ± 0.17 | 971.52 ± 0.17 | 966.2 ± 0.18
x1 = 0.1197 | 948.88 ± 0.21 | 941.64 ± 0.22 | 934.18 ± 0.23 | 926.48 ± 0.24
x1 = 0.2017 | 916.63 ± 0.26 | 908.64 ± 0.27 | 900.42 ± 0.29 | 891.98 ± 0.3
x1 = 0.28 | 891.87 ± 0.3 | 883.56 ± 0.32 | 875.01 ± 0.33 | 866.23 ± 0.34
x1 = 0.359 | 871.15 ± 0.34 | 862.65 ± 0.35 | 853.89 ± 0.36 | 844.85 ± 0.38
x1 = 0.4384 | 854.11 ± 0.37 | 845.46 ± 0.38 | 836.52 ± 0.39 | 827.31 ± 0.41
x1 = 0.5204 | 839.36 ± 0.39 | 830.58 ± 0.4 | 821.54 ± 0.42 | 812.2 ± 0.43
x1 = 0.5995 | 827.56 ± 0.41 | 818.72 ± 0.42 | 809.6 ± 0.44 | 800.16 ± 0.45
x1 = 0.6801 | 817.14 ± 0.43 | 808.26 ± 0.44 | 799.08 ± 0.46 | 789.6 ± 0.47
x1 = 0.7552 | 808.56 ± 0.45 | 799.67 ± 0.46 | 790.48 ± 0.47 | 780.98 ± 0.49
x1 = 0.8403 | 799.95 ± 0.46 | 791.1 ± 0.48 | 781.97 ± 0.49 | 772.47 ± 0.5
x1 = 0.9225 | 792.03 ± 0.48 | 783.34 ± 0.49 | 774.33 ± 0.5 | 764.97 ± 0.52
x1 = 1 | 785.1 ± 0.49 | 776.63 ± 0.5 | 767.84 ± 0.52 | 758.68 ± 0.53

CCCO [propan-1-ol] + O
mass density [kg/m3], [1]
Settings | 293.15 K | 303.15 K | 313.15 K | 323.15 K
x1 = 0.0401 | 980.98 ± 0.16 | 976.93 ± 0.16 | 972.23 ± 0.17 | 966.91 ± 0.18
x1 = 0.1202 | 947.94 ± 0.21 | 941.35 ± 0.22 | 934.48 ± 0.23 | 927.31 ± 0.24
x1 = 0.2 | 918.86 ± 0.26 | 911.37 ± 0.27 | 903.85 ± 0.28 | 896.05 ± 0.29
x1 = 0.2798 | 895.6 ± 0.29 | 887.91 ± 0.3 | 879.98 ± 0.32 | 871.78 ± 0.33
x1 = 0.3599 | 877.53 ± 0.32 | 869.57 ± 0.33 | 861.38 ± 0.35 | 852.93 ± 0.36
x1 = 0.4399 | 863 ± 0.34 | 854.86 ± 0.36 | 846.49 ± 0.37 | 837.86 ± 0.38
x1 = 0.5197 | 851.12 ± 0.36 | 842.87 ± 0.37 | 834.37 ± 0.39 | 825.64 ± 0.4
x1 = 0.5986 | 840.82 ± 0.38 | 832.48 ± 0.39 | 823.92 ± 0.4 | 815.16 ± 0.42
x1 = 0.6792 | 831.69 ± 0.39 | 823.34 ± 0.41 | 814.76 ± 0.42 | 805.95 ± 0.43
x1 = 0.7485 | 824.84 ± 0.4 | 816.47 ± 0.42 | 807.91 ± 0.43 | 799.13 ± 0.44
x1 = 0.8383 | 816.74 ± 0.42 | 808.45 ± 0.43 | 799.96 ± 0.44 | 791.25 ± 0.46
x1 = 0.9052 | 811.17 ± 0.43 | 802.94 ± 0.44 | 794.55 ± 0.45 | 785.94 ± 0.46
x1 = 1 | 803.59 ± 0.44 | 795.53 ± 0.45 | 787.38 ± 0.46 | 778.92 ± 0.48

O [water] + CCCO
Settings | mass density [kg/m3]
[1], 323.15 K, x2 = 0 | 988.03 ± 0.15

O [water] + CC(C)O
Settings | mass density [kg/m3]
[1], 323.15 K, x2 = 0 | 988.03 ± 0.15

CC(C)O [propan-2-ol]
[2]
Settings | mass density [kg/m3]
293.15 K | 785.1 ± 0.49
303.15 K | 776.63 ± 0.5
313.15 K | 767.84 ± 0.52
323.15 K | 758.68 ± 0.53

CCCO [propan-1-ol]
[2]
Settings | mass density [kg/m3]
293.15 K | 803.59 ± 0.44
303.15 K | 795.53 ± 0.45
313.15 K | 787.38 ± 0.46
323.15 K | 778.92 ± 0.48
